# Peptide text beside a SMILES is read from it.
# What was measured:
# human platelets [1] = assay: Thrombin-induced human platelet aggregation; format: cell-based; conditions: DEA/NO 10 μM
# Method: Platelets were pelleted from platelet-rich plasma (PRP) by centrifugation for 10 minutes at 200 g. They were then washed with acid citrate dextrose (ACD) (85 mM citric acid, 65 mM sodium citrate, 100 mM glucose, pH 5.1) at a ratio of 1:7 at room temperature. After pelleting the platelets again and removing the supernatant, the platelets were resuspended in 5 mL of Tyrode's buffer (137 mM NaCl, 3 mM KCl, 12 mM NaHCO3, 0.3 mM NaHPO4, 2 mM CaCl2, 1 mM MgCl2, 5.5 mM glucose, 5 mM HEPES, 3.5 mg/mL BSA, pH 7.4). The final platelet number was adjusted to […] in 500 μl/cuvette of Tyrode's buffer.
# Aggregation of human platelets under high shear conditions was assessed using a standard optical aggregometer (Lumi-Dual Aggregometer, Chrono-Log Corp., Havertown, Pa.) at 37° C. and 1200 rpm in a volume of 500 μl buffer with a final platelet concentration of 2×10^5 platelets/μl over a 5 minute interval. Pre-incubation with TSP1 and TSP1-based agents was for 15 minutes prior to addition of thrombin and/or the rapidly releasing nitric oxide donor DEA/NO. In some experiments platelets were pre-incubated with the Rap1 inhibitor GGTI-298 (10 μM) (Calbiochem, La Jolla, Calif.) for 30 minutes prior to initiating aggregation. In other high shear aggregation experiments murine platelets were prepared as above with the following modifications. Mouse blood was collected by retro-orbital bleeding of anesthetized mice using heparinized tubes. PRP was prepared and then diluted with 4 vol. of Tyrodes containing 5 mM EDTA to prevent activation. After collection by centrifugation, platelets were resuspended in 2× initial PRP volume and held at room temperature for less than 1 hour before use. Aggregation conditions consisted of 250 μL of washed platelets stirred at 1200 rpm in a Chronolog Optical aggregometer at 37° C. DEA/NO (10 μM) was added 30 seconds prior to activation and 8-BrcGMP added 15 min prior to activation with 0.2 U/ml human thrombin. Data was collected using Chronolog “Aggrolink” software. Platelet aggregation under static conditions was assessed using a spectrophotometer (Beckman DU 640, Beckman Coulter, Fullerton, Calif.) and determined as a change in absorbance at 400 nm with continuous observation over a five minute interval. The cuvette was inverted once every 60 seconds. Pre-incubation with TSP1 and TSP1-based agents was for 15 minutes prior to addition of thrombin and/or DEA/NO to minimize the formation of thrombin-serpinthrombospondin complexes (Chang & Detwiler, Arch Biochem Biophys. 299:100-104, 1992), which interfere with thrombin-platelet interactions.
# Fresh human platelets were suspended in Tyrode's buffer and under low shear conditions thrombin-stimulated aggregation measured as described. Platelets were then treated with peptide C6d (1 μM)±NO (10 μM DEA/NO) and thrombin and aggregation measure.
# HUVEC = assay: NO-stimulated HUVEC adhesion on type I collagen; format: cell-based, human; conditions: DEA/NO 10 μM, 1 h
# Method: Cell adhesion was carried out in 96-well culture plates. After pre-coating wells with type I collagen (3 μg/ml in DPBS) harvested cells were plated at a density of 1×10^4 cells/well in medium plus 0.1% BSA and treatment agents and incubated in 5% CO2 for 1 h. Wells were washed with PBS and cells fixed with 1% glutaraldehyde for 10 min., washed and stained with 1% crystal violet for 20 min. Excess stain was rinsed away, adherent cells treated with 10% acetic acid, and plates read at 570 nm.
# human platelets [2] = assay: cGMP in human platelets; format: cell-based; conditions: washed human platelets in Tyrode's buffer
# Method: Fresh human platelets at 2×10^5 platelets/μl in Tyrode's buffer or PRP were pre-incubated with the indicated agents for 15 minutes and then challenged with DEA/NO for the indicated time interval at room temperature and total cGMP determined via immunoassay (Amersham, GE Healthcare, Buckinghamshire, UK). Murine WT and TSP1-null platelets were treated with DEA/NO and cGMP flux measured.
# NO/cGMP signaling = assay: cGMP signaling (NO-stimulated cGMP, immunoassay); format: cell-based, human; conditions: concentration for 50% inhibition of effect
# Method: Vascular cells (endothelial) or HT-1080 cells (10^4 cells/well) grown overnight in 12-well culture in SM-GM containing 2% FCS or RPMI+10% FCS respectively and then weaned off serum over 48 h before treatment with NO donors and other agents in serum/additive free medium+0.1% BSA. Intracellular cGMP levels were determined using an enzyme immunoassay (Amersham, GE Health Care, UK). In other experiments fresh washed human platelets were incubated in Tyrode's buffer and the indicated treatment agents±NO and cGMP determined.
# [3] = test system: blood pressure and pulse in mice; assay: Blood pressure and pulse measurements (tail cuff); format: in vivo, mouse
# Method: Mean systolic, diastolic and arterial blood pressure (BP) and mean pulse was measured in age and sex matched mice using a computerized tail cuff system (Hatteras Systems, MC4000 Blood Pressure Analysis System, Cary, N.C.). The mice were allowed to acclimate to the apparatus for 5 min prior to the start of measurement. Each animal underwent a cycle of 10 preliminary and 50 experimental pressures measurements for data acquisition and data calculation. Animals were acclimated to the measuring system and protocol for 4 days with treatment with data acquisition being performed on the 5th day. Pressures recordings were performed at the same time each day. Data was accepted if the mouse had valid readings for at least 20 consecutive pulse beats. All studies were performed at the same hour each day.
# Respirations were monitored continuously monitored by direct observation of the animal. Body core temperature was measured via rectal probe. Temperature control was performed using a water-circulating warming surface and heating lamp. Following a 15 minute period of stabilization mean systolic, diastolic and arterial blood pressure and mean pulse measurements were determined.
compound,measurement,setting,value
KRFKQDGGWSHWSPWSS [p246],NO delay of thrombin-induced platelet aggregation,human platelets [1]; static / low shear conditions,inactive
"RFYGGMWK [p4N1G, control peptide, VVM substituted by GGM]",NO-stimulated endothelial cell adhesion on type I collagen,HUVEC,did not significantly inhibit
fibrinogen,NO delay of thrombin-induced platelet aggregation,"human platelets [1]; high shear, thrombin 0.2 U/ml",no significant effect
fibronectin [reference compound],NO stimulated cGMP in platelets,human platelets [2],no inhibition
same,NO delay of thrombin-induced platelet aggregation,"human platelets [1]; high shear, thrombin 0.2 U/ml",no significant effect
IGWKDFTAYK [compound 37554],cGMP signaling IC50,NO/cGMP signaling,inactive
"CC[C@H](C)[C@H](N)C(=O)NCC(=O)N[C@@H](Cc1c[nH]c2ccccc12)C(=O)N[C@@H](CCCCN)C(=O)N[C@@H](CC(N)=O)C(=O)N[C@@H](Cc1ccccc1)C(=O)N[C@H](C(=O)N[C@@H](C)C(=O)N[C@@H](Cc1ccc(O)cc1)C(=O)N[C@@H](CCCNC(=N)N)C(=O)O)[C@@H](C)O [compound 37297, IGWKNFTAYR] (H-IGWKNFTAYR-OH)",IC50,NO/cGMP signaling,> 10 µM
VTAGGGVQKRSRL [p906],NO delay of thrombin-induced platelet aggregation,human platelets [1]; static / low shear conditions,reversed an NO-stimulated delay of platelet aggregation
same,NO-stimulated endothelial cell adhesion on type I collagen,HUVEC,inhibited NO-stimulated endothelial cell adhesion
"CC[C@H](C)[C@H](N)C(=O)NCC(=O)N[C@@H](Cc1c[nH]c2ccccc12)C(=O)N[C@@H](CCCCN)C(=O)N[C@@H](CC(=O)O)C(=O)N[C@@H](Cc1ccccc1)C(=O)N[C@H](C(=O)N[C@@H](C)C(=O)N[C@@H](C)C(=O)N[C@@H](CCCNC(=N)N)C(=O)O)[C@@H](C)O [compound 37555, IGWKDFTAAR] (H-IGWKDFTAAR-OH)",IC50,NO/cGMP signaling,~10 µM
"CC(=O)N[C@@H](Cc1c[nH]c2ccccc12)C(=O)N[C@@H](CCCCN)C(=O)N[C@@H](CC(=O)O)C(=O)N[C@@H](Cc1ccccc1)C(=O)N[C@H](C(=O)N[C@@H](C)C(=O)N[C@@H](Cc1ccc(O)cc1)C(=O)N[C@@H](CCCNC(=N)N)C(=O)O)[C@@H](C)O [compound 37300, Ac-WKDFTAYR] (Ac-WKDFTAYR-OH)",IC50,NO/cGMP signaling,~1 µM
"CC[C@H](C)[C@H](N)C(=O)NCC(=O)N[C@@H](Cc1c[nH]c2ccccc12)C(=O)N[C@@H](CCCCN)C(=O)N[C@@H](CC(=O)O)C(=O)N[C@@H](Cc1ccccc1)C(=O)N[C@@H](C)C(=O)N[C@@H](C)C(=O)N[C@@H](Cc1ccc(O)cc1)C(=O)N[C@@H](CCCNC(=N)N)C(=O)O [compound 37299, IGWKDFAAYR] (H-IGWKDFAAYR-OH)",IC50,NO/cGMP signaling,> 10 µM
IGWKAFTAYR [compound 37296],cGMP signaling IC50,NO/cGMP signaling,inactive
CCCN(CCCN)/[N+]([O-])=N/O [PAPA/NO],mean arterial blood pressure response,"[3]; CD47 null animals, i.p.",greatest drop in mean arterial blood pressure
same,blood pressure response,"[3]; TSP1 null versus wild type, i.p.",drop in mean arterial pressure always greater in the absence of TSP1
same,mean pulse,[3]; after i.p. challenge,only modestly increased
"CC[C@H](C)[C@H](N)C(=O)NCC(=O)N[C@@H](Cc1c[nH]c2ccccc12)C(=O)N[C@@H](C)C(=O)N[C@@H](CC(=O)O)C(=O)N[C@@H](Cc1ccccc1)C(=O)N[C@H](C(=O)N[C@@H](C)C(=O)N[C@@H](Cc1ccc(O)cc1)C(=O)N[C@@H](CCCNC(=N)N)C(=O)O)[C@@H](C)O [compound 37413, IGWADFTAYR] (H-IGWADFTAYR-OH)",IC50,NO/cGMP signaling,> 10 µM
"FIRGGMYEGKK [compound 604, control peptide for 7N3]",NO delay of thrombin-induced platelet aggregation,"human platelets [1]; high shear, thrombin 0.2 U/ml",no effect
RFYVVMWK [4N1-1],NO delay of thrombin-induced platelet aggregation,human platelets [1]; static / low shear conditions,prevented an NO-stimulated delay in platelet aggregation
same,NO-stimulated endothelial cell adhesion on type I collagen,HUVEC,inhibited NO-stimulated endothelial cell adhesion
"CC[C@H](C)[C@H](N)C(=O)NCC(=O)N[C@@H](Cc1c[nH]c2ccccc12)C(=O)N[C@@H](Cc1c[nH]cn1)C(=O)N[C@@H](CC(=O)O)C(=O)N[C@@H](Cc1ccccc1)C(=O)N[C@H](C(=O)N[C@@H](C)C(=O)N[C@@H](Cc1ccc(O)cc1)C(=O)N[C@@H](CCCNC(=N)N)C(=O)O)[C@@H](C)O [compound 37414, IGWHDFTAYR] (H-IGWHDFTAYR-OH)",IC50,NO/cGMP signaling,> 10 µM
"FIRVAIYEGKK [compound 605, control peptide for 7N3]",NO delay of thrombin-induced platelet aggregation,"human platelets [1]; high shear, thrombin 0.2 U/ml",no effect
"FC(F)OC(Cl)C(F)(F)F (stereo not shown) [isoflurane, Isoflurane]",blood pressure under general anesthesia,[3]; TSP1-null animals,"significant decreases in systolic, diastolic and mean arterial blood pressures"
same,blood pressure under general anesthesia,[3]; wild type mice,very modest overall drop in mean arterial pressure
"CC[C@H](C)[C@H](N)C(=O)NCC(=O)N[C@@H](Cc1ccc(O)cc1)C(=O)N[C@@H](CCCCN)C(=O)N[C@@H](CC(=O)O)C(=O)N[C@@H](Cc1ccccc1)C(=O)N[C@H](C(=O)N[C@@H](C)C(=O)N[C@@H](Cc1ccc(O)cc1)C(=O)N[C@@H](CCCNC(=N)N)C(=O)O)[C@@H](C)O [compound 37417, IGYKDFTAYR] (H-IGYKDFTAYR-OH)",IC50,NO/cGMP signaling,~0.1 µM
"KRFYVVMWKK [4N1K, derivative of the 4N1-1 peptide with terminal lysines]",NO delay of thrombin-induced platelet aggregation,human platelets [1]; static / low shear conditions,prevented an NO-stimulated delay in platelet aggregation
"C[C@H](N)C(=O)NCC(=O)N[C@@H](Cc1c[nH]c2ccccc12)C(=O)N[C@@H](CCCCN)C(=O)N[C@@H](CC(=O)O)C(=O)N[C@@H](Cc1ccccc1)C(=O)N[C@H](C(=O)N[C@@H](C)C(=O)N[C@@H](Cc1ccc(O)cc1)C(=O)N[C@@H](CCCNC(=N)N)C(=O)O)[C@@H](C)O [compound 37416, AGWKDFTAYR] (H-AGWKDFTAYR-OH)",IC50,NO/cGMP signaling,~1 µM
E123CaG-1: recombinant C-terminal domains of TSP1,NO stimulated cGMP in platelets,human platelets [2],inhibited NO stimulated cGMP flux
same,NO delay of thrombin-induced platelet aggregation,"human platelets [1]; high shear, thrombin 0.2 U/ml",blocked the ability of NO to delay thrombin-induced aggregation
same,NO delay of thrombin-induced platelet aggregation,human platelets [1]; static / low shear conditions,reversed the NO delay of aggregation under static conditions
"CC[C@H](C)[C@H](N)C(=O)NCC(=O)N[C@@H](Cc1c[nH]c2ccccc12)C(=O)N[C@@H](CCCCN)C(=O)N[C@@H](CCC(=O)O)C(=O)N[C@@H](Cc1ccccc1)C(=O)N[C@H](C(=O)N[C@@H](C)C(=O)N[C@@H](Cc1ccc(O)cc1)C(=O)N[C@@H](CCCNC(=N)N)C(=O)O)[C@@H](C)O [compound 37415, IGWKEFTAYR] (H-IGWKEFTAYR-OH)",IC50,NO/cGMP signaling,1 µM
